Test results from PubChem BioAssay AID623925 (Vanderbilt Specialized Chemistry Center, 2012).
The source made the active and inactive calls.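 Rule for the calls: active = compounds whose calcium response changes with concentration, giving a dose-dependent curve as judged by the depositor; inactive = the rest, with no dose-dependent response.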

What follows are molecules tested against Muscarinic acetylcholine receptor M2 (Homo sapiens) (UniProt P08172) (assay: potentiation of ACh response at hM2 – CHO cells, Gqi5 chimera, calcium mobilization, selectivity assay for M4 PAM optimization, SAR follow-up (AID 623925)). Conditions: ACh EC20 potentiation.
Sequence of Muscarinic acetylcholine receptor M2 (Homo sapiens) (P08172 whole entry, looked up): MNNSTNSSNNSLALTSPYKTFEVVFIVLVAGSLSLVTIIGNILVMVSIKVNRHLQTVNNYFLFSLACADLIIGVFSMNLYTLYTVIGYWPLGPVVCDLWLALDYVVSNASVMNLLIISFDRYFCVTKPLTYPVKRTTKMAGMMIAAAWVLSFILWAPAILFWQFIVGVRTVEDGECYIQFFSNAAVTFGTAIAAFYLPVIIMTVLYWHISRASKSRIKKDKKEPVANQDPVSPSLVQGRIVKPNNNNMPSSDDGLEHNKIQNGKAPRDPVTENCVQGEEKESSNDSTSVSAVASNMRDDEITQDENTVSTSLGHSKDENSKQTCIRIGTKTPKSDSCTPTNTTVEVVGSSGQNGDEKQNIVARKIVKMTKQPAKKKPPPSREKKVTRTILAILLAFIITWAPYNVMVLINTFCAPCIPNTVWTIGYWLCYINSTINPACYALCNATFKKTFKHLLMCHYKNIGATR
With `Cc1nc2sc(C(=O)NCc3ccccc3)c(N)c2c(C)c1Cl` the outcome was “inactive”. In the case of `Cc1nc2sc(C(=O)NCc3ccncc3)c(N)c2c(C)c1Cl`, the outcome is reported as “inactive”. In the case of `Cc1nc2sc(C(=O)NCc3cccnc3)c(N)c2c(C)c1Cl`, the outcome is reported as “inactive”. `Cc1nc2sc(C(=O)NC3CC3)c(N)c2c(C)c1Cl` was tested, and the EC50 was 0.548 µM. `Cc1nc2sc(C(=O)NCc3ccc4c(c3)OCO4)c(N)c2c(C)c1Cl` was tested, and the outcome was “inactive”.

Same assay, conditions: ACh EC20 potentiation, at 30 µM (top of the series)
For `Cc1nc2sc(C(=O)NCc3ccncn3)c(N)c2c(C)c1Cl`, the “% ACh max response” value was “inactive”. For `Cc1nc2sc(C(=O)NCc3cccc(F)c3F)c(N)c2c(C)c1Cl`, the “% ACh max response” value was “inactive”. `Cc1nc2sc(C(=O)NCCc3ccncc3)c(N)c2c(C)c1Cl` was tested, and the “% ACh max response” value was “inactive”. `COc1ccc(C)c2sc(NC(=O)c3ccncc3)nc12` was tested, and the “% ACh max response” value was “inactive”. `Cc1nc2sc(C(=O)NCc3nccs3)c(N)c2c(C)c1Cl` was tested, and the “% ACh max response” value was “inactive”.
